Where two headings read alike, the source gives them in different places.
Legend:
Assay in all cases: HotSpot kinase profiling
Type in all cases: biochemical
PKG1b = target: T1, PKG1b (Homo sapiens, UniProt Q13976)
T1 construct: purchased Reaction Biology Corp
T1 sequence (Q13976 1-686 isoform Q13976-2): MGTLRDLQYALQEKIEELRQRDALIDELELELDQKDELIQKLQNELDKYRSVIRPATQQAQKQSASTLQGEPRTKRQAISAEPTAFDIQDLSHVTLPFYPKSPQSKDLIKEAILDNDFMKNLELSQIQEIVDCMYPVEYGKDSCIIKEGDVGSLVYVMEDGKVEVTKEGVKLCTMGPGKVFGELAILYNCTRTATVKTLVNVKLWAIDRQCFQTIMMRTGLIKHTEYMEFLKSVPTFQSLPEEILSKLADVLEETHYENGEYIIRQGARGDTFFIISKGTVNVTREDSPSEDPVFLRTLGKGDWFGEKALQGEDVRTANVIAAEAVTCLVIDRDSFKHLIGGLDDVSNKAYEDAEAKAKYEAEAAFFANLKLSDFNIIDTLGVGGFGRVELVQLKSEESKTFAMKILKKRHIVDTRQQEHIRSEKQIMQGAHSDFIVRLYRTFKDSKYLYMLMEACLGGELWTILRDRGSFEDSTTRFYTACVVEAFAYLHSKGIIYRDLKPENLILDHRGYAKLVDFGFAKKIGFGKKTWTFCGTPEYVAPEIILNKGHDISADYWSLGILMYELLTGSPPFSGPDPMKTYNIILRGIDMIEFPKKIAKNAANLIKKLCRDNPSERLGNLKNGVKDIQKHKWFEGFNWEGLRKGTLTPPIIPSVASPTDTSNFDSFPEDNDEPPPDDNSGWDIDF
How it was run: (§1)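 P81 filtration radiometric readout; 2 h incubation at room temperature; 0.1% phosphoric acid wash; DMSO negative control; % inhibition, mean of replicate runs.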

WEE1 = target: T2, WEE1 (Homo sapiens, UniProt P30291)
T2 construct: purchased Reaction Biology Corp
T2 sequence (P30291 whole entry): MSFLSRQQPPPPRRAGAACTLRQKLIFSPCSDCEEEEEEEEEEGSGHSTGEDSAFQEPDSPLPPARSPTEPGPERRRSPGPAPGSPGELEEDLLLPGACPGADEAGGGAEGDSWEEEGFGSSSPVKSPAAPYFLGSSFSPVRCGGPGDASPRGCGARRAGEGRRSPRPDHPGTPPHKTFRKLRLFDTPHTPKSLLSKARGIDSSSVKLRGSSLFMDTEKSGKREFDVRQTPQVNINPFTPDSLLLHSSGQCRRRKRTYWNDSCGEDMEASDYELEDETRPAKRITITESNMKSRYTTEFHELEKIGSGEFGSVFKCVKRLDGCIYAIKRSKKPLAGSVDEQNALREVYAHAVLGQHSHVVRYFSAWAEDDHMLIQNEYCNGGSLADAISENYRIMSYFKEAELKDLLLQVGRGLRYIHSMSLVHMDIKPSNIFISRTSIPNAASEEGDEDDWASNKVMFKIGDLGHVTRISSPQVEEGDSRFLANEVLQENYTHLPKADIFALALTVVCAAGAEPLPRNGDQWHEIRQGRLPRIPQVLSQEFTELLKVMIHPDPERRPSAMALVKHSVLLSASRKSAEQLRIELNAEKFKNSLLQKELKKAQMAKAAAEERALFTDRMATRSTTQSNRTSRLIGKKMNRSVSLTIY
How it was run: as §1

DYRK1B = target: T3, DYRK1B (Homo sapiens, UniProt Q9Y463)
T3 construct: purchased Reaction Biology Corp
T3 sequence (Q9Y463 whole entry): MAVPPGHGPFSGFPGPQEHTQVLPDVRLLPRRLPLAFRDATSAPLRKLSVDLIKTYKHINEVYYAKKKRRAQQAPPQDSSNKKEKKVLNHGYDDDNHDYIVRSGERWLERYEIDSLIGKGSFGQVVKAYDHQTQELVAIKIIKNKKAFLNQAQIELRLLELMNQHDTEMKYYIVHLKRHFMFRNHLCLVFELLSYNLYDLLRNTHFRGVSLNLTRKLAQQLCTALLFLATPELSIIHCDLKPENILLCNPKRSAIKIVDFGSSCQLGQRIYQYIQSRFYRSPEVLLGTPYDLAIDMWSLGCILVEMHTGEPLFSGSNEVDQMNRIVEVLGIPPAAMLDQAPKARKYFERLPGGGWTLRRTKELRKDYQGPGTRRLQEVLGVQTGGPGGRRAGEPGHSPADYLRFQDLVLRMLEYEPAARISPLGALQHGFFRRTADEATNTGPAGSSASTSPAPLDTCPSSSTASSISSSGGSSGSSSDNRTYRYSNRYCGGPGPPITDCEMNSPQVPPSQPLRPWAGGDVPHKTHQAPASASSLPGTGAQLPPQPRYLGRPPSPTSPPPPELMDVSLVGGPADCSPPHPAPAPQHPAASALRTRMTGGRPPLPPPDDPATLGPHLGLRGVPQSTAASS
How it was run: as §1

STK38/NDR1 = target: T4, STK38/NDR1 (Homo sapiens, UniProt Q15208)
T4 construct: purchased Reaction Biology Corp
T4 sequence (Q15208 whole entry): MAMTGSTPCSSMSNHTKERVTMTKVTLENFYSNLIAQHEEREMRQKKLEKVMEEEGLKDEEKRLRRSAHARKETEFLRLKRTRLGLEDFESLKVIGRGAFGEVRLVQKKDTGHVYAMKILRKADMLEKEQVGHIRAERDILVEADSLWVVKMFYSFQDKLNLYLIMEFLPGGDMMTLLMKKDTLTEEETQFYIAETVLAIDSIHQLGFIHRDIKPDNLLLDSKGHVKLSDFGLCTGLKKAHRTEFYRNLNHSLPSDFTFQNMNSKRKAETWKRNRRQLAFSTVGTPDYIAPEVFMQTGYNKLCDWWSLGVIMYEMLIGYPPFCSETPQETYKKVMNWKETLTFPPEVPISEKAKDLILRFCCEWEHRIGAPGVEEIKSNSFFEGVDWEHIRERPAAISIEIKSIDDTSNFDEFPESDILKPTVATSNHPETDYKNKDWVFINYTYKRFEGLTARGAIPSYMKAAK
How it was run: as §1

EPHB2 = target: T5, EPHB2 (Homo sapiens, UniProt P29323)
T5 construct: purchased Reaction Biology Corp
T5 sequence (P29323 19-1055): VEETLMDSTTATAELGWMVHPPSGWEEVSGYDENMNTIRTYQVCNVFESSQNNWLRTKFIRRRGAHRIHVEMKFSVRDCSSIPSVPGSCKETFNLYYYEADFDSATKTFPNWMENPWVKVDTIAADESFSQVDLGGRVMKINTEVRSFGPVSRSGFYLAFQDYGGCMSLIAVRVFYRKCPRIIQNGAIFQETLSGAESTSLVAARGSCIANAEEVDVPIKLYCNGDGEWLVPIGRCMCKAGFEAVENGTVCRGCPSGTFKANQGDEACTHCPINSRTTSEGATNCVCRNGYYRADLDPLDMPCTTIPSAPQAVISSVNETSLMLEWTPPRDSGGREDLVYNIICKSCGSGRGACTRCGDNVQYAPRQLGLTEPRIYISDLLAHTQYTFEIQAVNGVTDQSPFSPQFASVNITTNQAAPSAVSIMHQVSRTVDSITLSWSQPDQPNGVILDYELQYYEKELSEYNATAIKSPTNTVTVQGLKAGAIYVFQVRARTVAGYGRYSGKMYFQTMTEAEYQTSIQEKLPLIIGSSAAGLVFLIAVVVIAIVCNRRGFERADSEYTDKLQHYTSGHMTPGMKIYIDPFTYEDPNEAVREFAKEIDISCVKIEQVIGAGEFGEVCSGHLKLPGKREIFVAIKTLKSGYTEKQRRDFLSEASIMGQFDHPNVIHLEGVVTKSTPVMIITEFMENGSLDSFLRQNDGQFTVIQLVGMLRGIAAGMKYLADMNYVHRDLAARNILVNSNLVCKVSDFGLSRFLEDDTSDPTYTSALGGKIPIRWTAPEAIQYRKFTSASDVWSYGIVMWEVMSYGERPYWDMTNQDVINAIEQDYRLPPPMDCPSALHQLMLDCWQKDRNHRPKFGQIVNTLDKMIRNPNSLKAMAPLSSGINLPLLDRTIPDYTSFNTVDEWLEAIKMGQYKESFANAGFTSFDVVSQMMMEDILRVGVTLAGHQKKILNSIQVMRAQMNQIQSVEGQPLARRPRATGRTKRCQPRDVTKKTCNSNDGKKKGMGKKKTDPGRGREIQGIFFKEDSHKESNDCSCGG
How it was run: as §1

[1] = read-out: % Enzyme Activity (relative to DMSO controls) Run 1
[2] = read-out: % Enzyme Activity (relative to DMSO controls) Run 2

## C=CC(=O)Nc1cccc(Nc2nc(Nc3ccc(OCCOC)c(F)c3)ncc2F)c1 [Compound 2]
PKG1b
  inhibition at 3 µM: 13.8%
PKG1b; [1]
  remaining activity at 3 µM: 85.4%
PKG1b; [2]
  remaining activity at 3 µM: 87.1%
WEE1
  inhibition at 3 µM: 26%
WEE1; [1]
  remaining activity at 3 µM: 73.1%
WEE1; [2]
  remaining activity at 3 µM: 74.9%
DYRK1B
  inhibition at 3 µM: 20.2%
DYRK1B; [1]
  remaining activity at 3 µM: 78.6%
DYRK1B; [2]
  remaining activity at 3 µM: 80.9%
STK38/NDR1
  inhibition at 3 µM: 6.79%
STK38/NDR1; [1]
  remaining activity at 3 µM: 92.7%
STK38/NDR1; [2]
  remaining activity at 3 µM: 93.7%
EPHB2
  inhibition at 3 µM: -5.45%
EPHB2; [1]
  remaining activity at 3 µM: 104%
EPHB2; [2]
  remaining activity at 3 µM: 107%
